From ChEMBL document CHEMBL3232840, “Anti-proliferative activity of 2,6-dichloro-9- or 7-(ethoxycarbonylmethyl)-9H- or 7H-purines against several human solid tumour cell lines” (Eur J Med Chem, 2014)
pIC50: −log10 of the molar value.

Columns and labels:
HCT-116 [1] = assay: Antiproliferative activity against human HCT116 cells after 3 days by sulforhodamine-B colorimetric assay; assay type: functional, cell-based; details: HCT-116, 72 h
[2] = Antiproliferative activity against human G361 cells after 3 days by sulforhodamine-B colorimetric assay; assay type: functional, cell-based; details: G-361, 72 h
MCF7 [3] = assay: Antiproliferative activity against human MCF7 cells after 3 days by sulforhodamine-B colorimetric assay; assay type: functional, cell-based; details: MCF7, 72 h
A-375 [4] = assay: Antiproliferative activity against human A375 cells after 3 days by sulforhodamine-B colorimetric assay; assay type: functional, cell-based; details: A-375, 72 h
HCT-116 [5] = assay: Cell cycle arrest human HCT116 cells assessed as accumulation at G0/G1 phase at IC50 after 24 hrs by flow cytometry (reference value: 44.70 +/- 0.38 % ); assay type: functional
HCT-116 [6] = assay: Cell cycle arrest human HCT116 cells assessed as accumulation at S phase at IC50 after 24 hrs by flow cytometry (reference value: 38.26 +/- 1.40 % ); assay type: functional
A-375 [7] = assay: Cell cycle arrest human A375 cells assessed as accumulation at G2/M phase at IC50 after 24 hrs by flow cytometry (reference value: 12.42 +/- 0.70 % ); assay type: functional
MCF7 [8] = assay: Cell cycle arrest human MCF7 cells assessed as accumulation at G0/G1 phase at IC50 after 24 hrs by flow cytometry (reference value: 34.58 +/- 0.09 % ); assay type: functional
HCT-116 [9] = assay: Cell cycle arrest human HCT116 cells assessed as accumulation at G2/M phase at IC50 after 24 hrs by flow cytometry (reference value: 17.02 +/- 1.40 % ); assay type: functional
A-375 [10] = assay: Induction of apoptosis in human A375 cells at IC50 after 24 hrs by annexin V-FITC/PI-based flow cytometry (reference value: 6.83 +/- 0.40 % ); assay type: functional
MCF7 [11] = assay: Induction of apoptosis in human MCF7 cells at IC50 after 24 hrs by annexin V-FITC/PI-based flow cytometry (reference value: 10.80 +/- 0.85 % ); assay type: functional
A-375 [12] = assay: Cell cycle arrest human A375 cells assessed as accumulation at G0/G1 phase at IC50 after 24 hrs by flow cytometry (reference value: 57.97 +/- 0.93 % ); assay type: functional
HCT-116 [13] = assay: Induction of apoptosis in human HCT116 cells at IC50 after 24 hrs by annexin V-FITC/PI-based flow cytometry (reference value: 7.27 +/- 1.57 % ); assay type: functional
A-375 [14] = assay: Cell cycle arrest human A375 cells assessed as accumulation at S phase at IC50 after 24 hrs by flow cytometry (reference value: 29.60 +/- 0.78 % ); assay type: functional
MCF7 [15] = assay: Cell cycle arrest human MCF7 cells assessed as accumulation at S phase at IC50 after 24 hrs by flow cytometry (reference value: 14.50 +/- 1.06 % ); assay type: functional
MCF7 [16] = assay: Cell cycle arrest human MCF7 cells assessed as accumulation at G2/M phase at IC50 after 24 hrs by flow cytometry (reference value: 50.91 +/- 1.15 % ); assay type: functional

SMILES	pIC50 (HCT-116 [1])	pIC50 (MCF7 [3])	pIC50 (A-375 [4])	pIC50 [2]	Activity (HCT-116 [5]) [%]	Activity (HCT-116 [6]) [%]	Activity (A-375 [7]) [%]	Activity (MCF7 [8]) [%]	Activity (HCT-116 [9]) [%]	Activity (A-375 [10]) [%]	Activity (MCF7 [11]) [%]	Activity (A-375 [12]) [%]	Activity (HCT-116 [13]) [%]	Activity (A-375 [14]) [%]	Activity (MCF7 [15]) [%]	Activity (MCF7 [16]) [%]
CCOC(=O)Cn1cc(F)c(=O)[nH]c1=O	4.61	4.60	4.42	4.54	–	–	–	–	–	–	–	–	–	–	–	–
CCOC(=O)Cn1cnc2ncnc(Cl)c21	4.17	4.30	4.84	4.67	–	–	–	–	–	–	–	–	–	–	–	–
CCOC(=O)Cn1cnc2c(Br)ncnc21	4.63	4.85	4.87	4.80	–	–	–	–	–	–	–	–	–	–	–	–
CCOC(=O)Cn1cnc2ncnc(Br)c21	4.25	4.69	4.57	4.74	–	–	–	–	–	–	–	–	–	–	–	–

Stronger by pIC50 (HCT-116 [1]), values ahead:

pIC50 (HCT-116 [1])	pIC50 (MCF7 [3])	pIC50 (A-375 [4])	SMILES	pIC50 [2]	Activity (HCT-116 [5]) [%]	Activity (HCT-116 [6]) [%]	Activity (A-375 [7]) [%]	Activity (MCF7 [8]) [%]	Activity (HCT-116 [9]) [%]	Activity (A-375 [10]) [%]	Activity (MCF7 [11]) [%]	Activity (A-375 [12]) [%]	Activity (HCT-116 [13]) [%]	Activity (A-375 [14]) [%]	Activity (MCF7 [15]) [%]	Activity (MCF7 [16]) [%]
4.65	4.52	4.29	CCOC(=O)Cn1c(=O)[nH]cc(F)c1=O	4.60	–	–	–	–	–	–	–	–	–	–	–	–
5.28	4.45	4.72	CCOC(=O)Cn1cnc2c(Cl)ncnc21	4.67	–	–	–	–	–	–	–	–	–	–	–	–
5.21	5.41	5.93	CCOC(=O)Cn1cnc2c(Cl)nc(Cl)nc21	5.51	45.93	36.75	12.73	28.17	17.31	35.37	20.53	58.48	20.2	28.78	15.39	54.63
5.20	5.25	5.30	CCOC(=O)Cn1cnc2nc(Cl)nc(Cl)c21	5.25	33.58	37.93	9.34	34.54	28.47	27.13	24.1	70.55	17.03	20.1	18.27	47.19
